Experiments:
Escherichia coli 0-111 = assay: Test for antimicrobial activity (turbidity): growth inhibiting concentration of antibiotics; assay type: cell-based
Protocol: (§1) Precultures of test microorganisms to be used in the tests described hereunder were prepared in such a manner that: from the frozen preservation of dispersions of test microorganisms, a loop of the respective strains of the microorganisms were taken out and spread onto TRI PETIT CASE SOYA AGAR MEDIA (by BBL Company), and incubated at 37° C. for 16 hours; the colonies grown on the culture media were scraped by a platinum loop and cultivated in 2.1% Mueller-Hington Broth (by Difco Company) respectively for several hours at 37° C. The resultant microbial cultures at logarithmic phase in 3×10^8 /ml of microbial concentration were used as the precultures.
(§2) The test media to be used in the respective tests were prepared in such a manner that: aqueous solutions in a predetermined concentration of the lactoferrin hydrolysates or the lactoferrin-derived antimicrobial peptides of (1) and (2) in Preparation of Samples (supra), as well as the samples of antibiotics of (3) (supra) were respectively sterilized with filters (by Advantec Company); then a quantity of the resultant solutions of respective samples were selectively added to a quantity of basal medium (Mueller-Hington Broth) prepared in the eventual concentration of 2.1%, thereby combinations of the samples and their concentrations in the respective test media were adjusted as specified in the respective tests.
(§3) Antimicrobial activity was examined as follows: A quantity of the respective precultures prepared in (1) immediately above was diluted with 2.1% Mueller-Hington Broth to result in 2×10^6 /ml of microbial concentration; 100 μl aliquots of the resultant liquid were added to 100 μl aliquots of one of the test media as specified in the respective test; the resultant media were incubated at 37° C. for 16 hours; then the turbidity of the resultant culture broths were measured thereby antimicrobial activity was examined.
(§4) Components in the test and control media and eventual concentrations thereof were adjusted by properly combining 0 mg, 0.4 mg, 1.6 mg and 6.4 mg/ml of lactoferrin hydrolysate of (1) (in Preparation of Samples, supra). or 0 μg, 16 μg, 64 μg, and 256 μg/ml of lactoferrin-derived antimicrobial peptides of (2) (in Preparation of Samples, supra), and 0 μg, 0.01 μg, 0.1 μg, 1 μg, and 10 μg/ml of antibiotics of (3) (supra), then antimicrobial activity of the combined use of the components against Escherichia coli 0-111 and Staphylococcus aureus (JCM2151) as well as growth inhibiting concentrations of the antibiotics were investigated.

[1] = test system: Staphylococcus aureus JCM2151; assay: as above; assay type: cell-based; settings: for MIC: Staphylococcus aureus
Protocol: as §1, §2, §3, §4

[2] = Escherichia coli, 0111, antimicrobial peptide (Seq. ID No. 27) 0 μg/ml
[3] = Escherichia coli, 0111, antimicrobial peptide (Seq. ID No. 27) 16 μg/ml
[4] = Escherichia coli, 0111, antimicrobial peptide (Seq. ID No. 27) 64 μg/ml
[5] = Escherichia coli, 0111, antimicrobial peptide (Seq. ID No. 27) 256 μg/ml
[6] = lactoferrin hydrolysate 0 mg/ml
[7] = lactoferrin hydrolysate 0.4 mg/ml
[8] = lactoferrin hydrolysate 1.6 mg/ml
[9] = lactoferrin hydrolysate 6.4 mg/ml
[10] = JCM2151, antimicrobial peptide (Seq. ID No. 27) 0 μg/ml
[11] = JCM2151, antimicrobial peptide (Seq. ID No. 27) 16 μg/ml
[12] = JCM2151, antimicrobial peptide (Seq. ID No. 27) 64 μg/ml
[13] = JCM2151, antimicrobial peptide (Seq. ID No. 27) 256 μg/ml
[14] = antimicrobial peptide (Seq. ID No. 27) 0 μg/ml
[15] = antimicrobial peptide (Seq. ID No. 27) 16 μg/ml
[16] = antimicrobial peptide (Seq. ID No. 27) 64 μg/ml
[17] = antimicrobial peptide (Seq. ID No. 27) 256 μg/ml

Row | Compound | MIC (Escherichia coli 0-111; [2]) [µg/mL] | MIC (Escherichia coli 0-111; [3]) [µg/mL] | MIC (Escherichia coli 0-111; [4]) [µg/mL] | MIC (Escherichia coli 0-111; [5]) [µg/mL] | Growth inhibiting Concentration of antibiotics (Escherichia coli 0-111; [6]) [µg/mL] | Growth inhibiting Concentration of antibiotics (Escherichia coli 0-111; [7]) [µg/mL] | Growth inhibiting Concentration of antibiotics (Escherichia coli 0-111; [8]) [µg/mL] | Growth inhibiting Concentration of antibiotics (Escherichia coli 0-111; [9]) [µg/mL] | MIC [1, 10] [µg/mL] | MIC [1, 11] [µg/mL] | MIC [1, 12] [µg/mL] | MIC [1, 13] [µg/mL] | Growth inhibiting Concentration of antibiotics [1, 6] [µg/mL] | Growth inhibiting Concentration of antibiotics [1, 7] [µg/mL] | Growth inhibiting Concentration of antibiotics [1, 8] [µg/mL] | Growth inhibiting Concentration of antibiotics [1, 9] [µg/mL] | Growth inhibiting Concentration of antibiotics (Escherichia coli 0-111; [14]) [µg/mL] | Growth inhibiting Concentration of antibiotics (Escherichia coli 0-111; [15]) [µg/mL] | Growth inhibiting Concentration of antibiotics (Escherichia coli 0-111; [16]) [µg/mL] | Growth inhibiting Concentration of antibiotics (Escherichia coli 0-111; [17]) [µg/mL] | also measured
1 | NC[C@H]1O[C@H](O[C@H]2[C@H](O)[C@@H](O[C@H]3O[C@H](CO)[C@@H](O)[C@H](N)[C@H]3O)[C@H](N)C[C@@H]2N)[C@H](O)[C@@H](O)[C@@H]1O [kanamycin] | > 1 | > 1 | 1 | 0.01 | > 1 | > 1 | 1 | 0.1 | > 1 | > 1 | 1 | 0.01 | > 1 | > 1 | > 1 | 0.1 |  |  |  |  | 
2 | COc1cccc(OC)c1C(=O)N[C@@H]1C(=O)N2[C@@H]1SC(C)(C)[C@@H]2C(=O)O [staphcillin] | > 1 | > 1 | 1 | 0.01 | > 1 | > 1 | > 1 | 0.1 | > 1 | > 1 | 1 | 0.01 | > 1 | > 1 | > 1 | 0.1 |  |  |  |  | 
3 | gentamicin |  |  |  |  | 1 | 1 | 0.1 | 0.1 |  |  |  |  | 1 | 0.1 | 0.1 | 0.1 | 1 | 1 | 0.1 | 0.1 | Growth inhibiting Concentration of antibiotics [1, 14]: 1 µg/mL; Growth inhibiting Concentration of antibiotics [1, 15]: 0.1 µg/mL; Growth inhibiting Concentration of antibiotics [1, 16]: 0.1 µg/mL; Growth inhibiting Concentration of antibiotics [1, 17]: 0.1 µg/mL
4 | polymyxin B |  |  |  |  | > 1 | > 1 | 0.1 | 0.01 |  |  |  |  | > 1 | 0.1 | 0.1 | 0.1 | > 1 | > 1 | 0.1 | 0.1 | Growth inhibiting Concentration of antibiotics [1, 14]: > 1 µg/mL; Growth inhibiting Concentration of antibiotics [1, 15]: 0.1 µg/mL; Growth inhibiting Concentration of antibiotics [1, 16]: 0.1 µg/mL; Growth inhibiting Concentration of antibiotics [1, 17]: 0.1 µg/mL

Source: patent publication US5656591A, “Antimicrobial agents and method for treating products therewith” (Morinaga Milk Industry Co., Ltd., priority 1992, dated 1997)
